Source: publication PMC6926478, “Structures of Respiratory Supercomplex I+III2 Reveal Functional and Conformational Crosstalk” (Molecular Cell, 2019)

Biological target: T1, SC I+III2 (complex I, NADH/FMN site) (Ovis aries, UniProt Z9LRO2FUZ7)
T1 construct: native supercomplex I+III2 from heart mitochondria, LMNG-extracted, amphipol A8-35 stabilised; complex I has 45 subunits, ~1 MDa; with NADH dehydrogenase [ubiquinone] flavoprotein 2, mitochondrial; NADH-ubiquinone oxidoreductase 75 kDa subunit, mitochondrial; NADH dehydrogenase [ubiquinone] iron-sulfur protein 2, mitochondrial; NADH dehydrogenase [ubiquinone] iron-sulfur protein 7, mitochondrial; NADH-ubiquinone oxidoreductase chain 1; Cytochrome b
Test: cryoEM structure, […] Å focused map of CI peripheral arm
Type: binding
Details: native cofactor

## Cc1cc2nc3c(=O)[nH]c(=O)nc-3n(C[C@H](O)[C@H](O)[C@H](O)COP(=O)(O)O)c2cc1C [FMN]
  cryoEM structure, 3.8 Å focused map of CI peripheral arm: The FMN, FeS clusters, and heme groups are shown colored by atom
